We go through eight molecules from patent US7892756B2, “Human salty taste receptor and methods of modulating salty taste perception” (Monell Chemical Senses Center, priority 2006, dated 2011).

“Also recorded” adds a separate entry of the source. Like-named read-outs stand apart in the source and are kept apart here.

For assay [1], the system named is catfish putative taste receptor for L-arginine. As to the kind of experiment: Single channel recording of purified receptor reconstituted in planar lipid bilayers (FIG. 9). Format: biochemical. The following applies: transmembrane potential −100 mV. An excerpt: Proteoliposomes containing purified receptor protein from catfish taste epithelium are fused to planar lipid bilayers. Control records (trace shown in part A) were obtained after addition of proteolipisomes to the membrane bathing solution before addition of L-Arg. […] Transmembrane potential was −100 mV. Traces shown in all panels are continuous records of that specific condition.
This example, in part, describes the extraction, purification, and membrane-reconstitution of a taste receptor for L-arginine (L-arg) from catfish. The methods, which are published and described in Grosvenor, W et al. (2004) BMC Neuroscience 5:25, can be readily adapted for reconstitution of ENaC, ENaC subunits, and salty taste receptors in lipid membranes as described below. The catfish has served as a model for taste receptor studies because the receptors are very sensitive to certain amino acids. One such amino acid is L-arg. Like the ENaC, the taste receptor for L-arg in catfish is an ion channel. Parallel approaches are utilized in solubilizing the L-arg and ENaC-type receptors. The receptors differ primarily by origin—the L-arg receptor is purified from catfish taste tissue and the ENaC subunits are synthesized by a heterologous cell culture expression system. […]

Assay [2] concerns L-ArgR (native taste receptor for L-arginine). The assay can be described thus: Taste nerve recordings from the animal, L-ArgR in its native state. It counts as in vivo, catfish. An excerpt: The properties of the L-ArgR as measured in the bilayer are very similar to those observed through taste nerve recordings from the animal, when the L-ArgR is in its native state.
In assay [3] the test system is salty taste response in humans. The following applies: in vivo, cited from earlier work.
Assay [4] has as its target T1, ENaC composed of human delta, beta, gamma (Homo sapiens, UniProt P51172, C696Y).
T1 sequence (P51172 1-638 isoform P51172-1 C532Y): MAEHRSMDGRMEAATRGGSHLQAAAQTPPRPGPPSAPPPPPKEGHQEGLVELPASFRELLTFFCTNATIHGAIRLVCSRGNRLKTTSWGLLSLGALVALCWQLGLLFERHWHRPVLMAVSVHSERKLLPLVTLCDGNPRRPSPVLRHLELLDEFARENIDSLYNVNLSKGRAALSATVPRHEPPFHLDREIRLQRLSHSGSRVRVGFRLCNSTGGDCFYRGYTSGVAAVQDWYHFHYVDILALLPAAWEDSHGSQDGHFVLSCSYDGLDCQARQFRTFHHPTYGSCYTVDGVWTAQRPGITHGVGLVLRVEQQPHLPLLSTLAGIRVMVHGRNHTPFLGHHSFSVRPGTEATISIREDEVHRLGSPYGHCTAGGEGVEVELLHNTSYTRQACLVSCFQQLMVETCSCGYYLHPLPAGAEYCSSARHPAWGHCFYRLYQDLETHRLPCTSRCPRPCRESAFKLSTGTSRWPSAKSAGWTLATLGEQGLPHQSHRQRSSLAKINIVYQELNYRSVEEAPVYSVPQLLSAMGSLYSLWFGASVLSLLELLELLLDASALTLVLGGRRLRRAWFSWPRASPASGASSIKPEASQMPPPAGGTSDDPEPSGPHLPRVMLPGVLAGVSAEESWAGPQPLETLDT
T1 sequence (P51168 1-640 partner): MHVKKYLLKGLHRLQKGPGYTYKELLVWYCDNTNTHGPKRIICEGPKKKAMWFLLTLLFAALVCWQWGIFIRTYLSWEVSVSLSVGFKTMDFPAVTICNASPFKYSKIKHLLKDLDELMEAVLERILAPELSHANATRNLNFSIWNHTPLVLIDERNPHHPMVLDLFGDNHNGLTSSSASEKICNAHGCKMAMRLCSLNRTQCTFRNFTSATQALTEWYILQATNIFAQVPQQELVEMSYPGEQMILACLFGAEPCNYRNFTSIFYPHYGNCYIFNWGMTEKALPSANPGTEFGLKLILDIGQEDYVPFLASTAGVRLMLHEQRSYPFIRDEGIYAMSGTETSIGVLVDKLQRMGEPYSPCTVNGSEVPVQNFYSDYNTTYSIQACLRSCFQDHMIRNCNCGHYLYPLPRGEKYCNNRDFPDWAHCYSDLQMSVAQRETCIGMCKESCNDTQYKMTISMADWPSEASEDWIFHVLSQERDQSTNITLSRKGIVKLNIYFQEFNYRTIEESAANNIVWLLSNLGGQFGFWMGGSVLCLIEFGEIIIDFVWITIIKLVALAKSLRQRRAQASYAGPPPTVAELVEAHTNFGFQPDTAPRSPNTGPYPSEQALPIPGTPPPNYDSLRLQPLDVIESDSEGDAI
T1 sequence (P51170 1-649 partner): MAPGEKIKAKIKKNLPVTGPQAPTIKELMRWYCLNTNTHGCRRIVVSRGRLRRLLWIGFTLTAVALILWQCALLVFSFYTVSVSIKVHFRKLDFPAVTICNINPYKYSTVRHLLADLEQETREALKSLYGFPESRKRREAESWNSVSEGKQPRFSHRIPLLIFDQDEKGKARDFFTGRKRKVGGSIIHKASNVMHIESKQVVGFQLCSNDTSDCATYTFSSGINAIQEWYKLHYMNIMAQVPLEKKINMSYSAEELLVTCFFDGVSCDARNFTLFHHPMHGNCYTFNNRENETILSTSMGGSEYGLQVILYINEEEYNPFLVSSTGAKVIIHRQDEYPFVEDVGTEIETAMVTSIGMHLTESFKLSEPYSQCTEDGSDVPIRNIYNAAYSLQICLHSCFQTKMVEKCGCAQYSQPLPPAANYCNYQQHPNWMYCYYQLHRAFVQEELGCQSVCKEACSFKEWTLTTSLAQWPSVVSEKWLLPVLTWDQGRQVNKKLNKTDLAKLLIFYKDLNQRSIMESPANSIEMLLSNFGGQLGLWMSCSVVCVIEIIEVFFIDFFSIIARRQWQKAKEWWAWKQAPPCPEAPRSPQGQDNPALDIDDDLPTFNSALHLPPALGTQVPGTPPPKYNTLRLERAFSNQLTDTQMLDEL
The assay can be described thus: Amiloride inhibition of ENaC of different composition (FIG. 4). Format: biochemical. The conditions noted are these: gamma ENaC compared with human alpha.

The target in another assay is T2, ENaC delta (δ) subunit (Homo sapiens, UniProt P51172).
T2 sequence (P51172 1-802): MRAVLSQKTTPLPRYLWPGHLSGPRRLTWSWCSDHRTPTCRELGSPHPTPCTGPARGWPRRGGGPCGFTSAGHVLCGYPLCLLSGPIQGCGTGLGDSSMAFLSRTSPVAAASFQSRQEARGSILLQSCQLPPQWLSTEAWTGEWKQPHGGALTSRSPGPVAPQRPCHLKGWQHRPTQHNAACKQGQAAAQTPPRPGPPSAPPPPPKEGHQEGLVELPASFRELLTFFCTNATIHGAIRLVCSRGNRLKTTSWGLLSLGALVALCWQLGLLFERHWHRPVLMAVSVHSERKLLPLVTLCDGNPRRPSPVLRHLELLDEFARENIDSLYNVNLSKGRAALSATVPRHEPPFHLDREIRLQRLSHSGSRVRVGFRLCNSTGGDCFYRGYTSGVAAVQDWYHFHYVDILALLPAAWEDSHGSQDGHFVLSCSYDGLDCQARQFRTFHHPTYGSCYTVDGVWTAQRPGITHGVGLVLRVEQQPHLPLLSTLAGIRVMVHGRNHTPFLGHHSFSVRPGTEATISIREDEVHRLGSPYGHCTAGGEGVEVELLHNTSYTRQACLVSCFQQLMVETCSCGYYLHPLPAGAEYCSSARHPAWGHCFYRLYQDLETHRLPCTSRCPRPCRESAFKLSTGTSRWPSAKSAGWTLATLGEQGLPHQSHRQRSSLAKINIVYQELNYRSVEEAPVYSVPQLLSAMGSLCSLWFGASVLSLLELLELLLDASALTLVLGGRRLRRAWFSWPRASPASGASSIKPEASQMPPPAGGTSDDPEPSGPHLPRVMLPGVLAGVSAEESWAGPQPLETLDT
T2 sequence (P51168 1-640 partner): T1 sequence (P51168 1-640 partner)
T2 sequence (P51170 1-649 partner): T1 sequence (P51170 1-649 partner)
The following applies: delta versus alpha subunit; cited from earlier work.

As to `N=C(N)NCCC[C@@H](N)C(=O)O` [D-Arg, D-arginine], the “single channel activity after addition to the cis-side following L-Arg” value in assay [1] (100 μM, cis-side, after 10 μM L-Arg) is “activity ceased”. Moreover, in assay [2], the “effect on the native receptor” value was “inhibits the receptor”. Besides, the “effect on salty taste response in humans” value in assay [3] is given as “equally effective”. Consider `N=C(N)NCCC[C@H](N)C(=O)O` [L-Arg, L-arginine], for which the “single channel activity after addition to the cis-side” value in assay [1] (10 μM, cis-side of bilayer) is reported as “evoked regular periodic channel activity”. For the same molecule, the “sensitivity of the native receptor” value in assay [2] was “in the tenths of uM”. Also, the “effect on salty taste response in humans” value in assay [3] (listed as L-arginine) is listed as “equally effective”.

As for `[Cl-].[Na+]` [NaCl, sodium chloride], the “concentration at which a salty taste is imparted” value in assay [3] is reported as “above 50 mM”. For the molecule `N=C(N)NC(=O)c1nc(Cl)c(N)nc1N` [amiloride], the “amiloride sensitivity of delta-containing ENaC relative to alpha, beta, gamma ENaC” value in assay [4] is listed as “less so than the alpha; also recorded: less sensitive to amiloride”. For the same molecule, at ENaC delta (δ) subunit, the “lower affinity for amiloride of delta subunit relative to alpha subunit” value is 30 fold. Further, the “effect on salty taste response in humans” value in assay [3] is recorded as “inability of amiloride to inhibit sodium-induced salty taste response in humans; also recorded: not sensitive to amiloride”. With `N=C(N)NCCC[C@H](N)C(=O)O` [arginine], in assay [3], the “effect on salty taste response in humans” value is given as “salty taste enhancers”. For the molecule `[H]/N=C(\N/C(=N/[H])NCCCCCCNC(=N)NC(=N)Nc1ccc(Cl)cc1)Nc1ccc(Cl)cc1` [chlorhexidine], the “effect on salty taste response in humans” value in assay [3] is reported as “inhibitor of the salty taste response in humans”.

With `N=C(N)N` [guanidine], the “effect on salty taste response in humans” value in assay [3] is reported as “salty taste enhancers”. Consider `N=C(N)NCCCC[C@H](N)C(=O)O` [homoarginine], for which, in assay [3], the “effect on salty taste response in humans” value is given as “salty taste enhancers”.
